Consider four molecules from patent US10519132B2, “Isocorydine derivatives, preparation method and use thereof” (Lanzhou Institute of Chemical Physics, Chinese Academy of …, priority 2017, dated 2019).

Where two headings read alike, the source gives them in different places. Bounds are passed on as bounds.

For orientation: IC50 means the concentration that inhibits the measured activity by half.

Data set [1] deals with human liver cancer cell strain HepG2. Briefly: MTT growth inhibition on HepG2.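 Further: adherent cells in 96-well plates treated with a concentration series for 24, 48 or 72 h, MTT absorbance read at 490 nm, inhibition computed relative to untreated control wells.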 As to conditions: read-out: IC50 HepG2. It counts as cell-based.
Method: (§5) By using an MTT method, a sample solution to be tested was added to a 96-well plate in which cancer cells were adherently grown. Culturing was performed for a certain period, and the growth inhibition effect of a compound on a human cancer cell strain for primary screening was measured to determine the anti-cancer activity of the compound.
(§6) Cell culture: A cell incubator was set to conditions of 37° C., 5% CO2, and a saturated humidity, cells were cultured under these conditions, and the cell medium was a DMEM complete medium, wherein 10% fetal bovine serum, 100 IU/mL penicillin, and 100 μg/mL streptomycin were comprised.
(§7) The single cell suspension was diluted to 5×10^3/100 μL after counting, inoculated on a 96-well cell culture plate (triplicate), and adherently cultured overnight;
(§8) After 24 h of adhesion, the complete medium was discarded, 100 μL-sample-solutions to be tested having different concentrations were sequentially added to the 96-well plate according to a concentration gradient, and incubations were continued for 24 h, 48 h, and 72 h;
(§9) The culture liquid was discarded, a 0.5 mg/mL MTT diluted working liquid was added, and incubation was performed for 4 h by placing in an incubator;
(§10) The culture liquid was discarded, 100 μL of DMSO was added, low-speed oscillation was performed for 10 min by placing on a shaker, and the spectrophotometric value of each well was measured at a wavelength of 490 nm by using a microplate reader. Statistical analysis was performed and tumor cell growth inhibition rate was calculated according to the equation: Growth inhibition rate=(OD value of control group−OD value of experimental group)/OD value of control group.
(§11) Culturing was performed for a certain period, the growth inhibition effect of a compound on 3 human cancer cell strains for primary screening was measured to determine the anti-cancer activity of the compound, and a growth inhibition curve was plotted.
In data set [2] the test system is C-Myc, Ki-67, CylinD1, β-Catenin protein. Briefly: Western blotting, protein expression in HepG2 cells. It counts as cell-based, human. As to conditions: sorafenib 4 μg/mL; for expressions of C-Myc, Ki-67, CylinD1 and β-Catenin protein compared to the blank control group: high COM33 dosage 10.0 μg/mL, combination 4 μg/mL sorafenib+5.0 μg/mL COM33. The procedure:
(§1) Method: Gel electrophoresis of protein samples. Gel formulation: All components were added to a small beaker according to a formulation of a separation gel, uniformly mixed with slightly shaking to prevent the generation of bubbles, quickly applied to a seam of a glass plate with a 1 mL pipette, and then blocked with double distilled water to prevent oxidation. After 30 min, the separation gel solidified, the double distilled water thereof was poured off, waster was suctioned with a filter paper, a 5% concentration gel was formulated, TEMED was finally loaded onto the glass plate, and a 1.0 mm comb was inserted into the concentration gel and placed at room temperature for 30 min. The comb was slightly, vertically, and carefully pulled up, various groups of 20 μL protein samples were pipetted with a microsyringe, an equal volume of a loading buffer and an equal volume of a loading buffer containing 3 μL of Marker were separately added to a loading well, an electrophoresis instrument was switched on after electrodes were plugged, gels were run at 75V for 30 min, and the voltage was changed to 120V and gels were run for 2 h when bromophenol blue reaches the separation gel. Membrane transfer: A PVDF membrane having a suitable size was cut according to the size of the gel, placed in a methanol solution for 1 min, lifted, and placed and soaked together with a well cut filter paper in a previously precooled membrane transfer buffer. A sponge pad, three layers of filter paper, a gel, three layers of filter paper, and a sponge pad, in this order from top to bottom, were placed in a membrane transfer tank, and a precooled membrane transfer buffer was then added. Several ice bags were placed circumferentially to prevent an excessively hot external environment, and electrodes were plugged and membrane transfer was performed at a constant current of […] for 2.5 hours. Blocking and incubation of antibodies: A transferred membrane was cut into desired bands, which were placed in a blocking solution of 5% skim milk powder, placed on a shaker, and shaken at room temperature at a low speed for 1 h. A primary antibody was diluted with the blocking solution, a corresponding antibody was pipetted and added to a zip lock bag, the PVDF membrane was then placed in the antibody dilution, bubbles in the zip lock bag were evacuated, and the zip lock bag was sealed and placed in a refrigerator at 4° C. overnight. The membrane was withdrawn from the zip lock bag on the second day, and placed in a clean dish. A TBST solution was added and washed 3 times on a low-speed shaker, 10 min for each time. […]

For another data set, the system named is Vimentin. The experiment in a line: Western blotting, Vimentin expression in HepG2 cells. In kind it is cell-based, human. The method, then:
as §1
Background: A western blot detects proteins with antibodies after separation by electrophoresis.

Data set [3] relates to ascites hepatoma H22 induced solid tumor. The experiment in a line: In vivo tumor growth inhibition in mice bearing H22. On the set-up: species or system white Kunming mice. The source says: 1. Tumor strain and animal for experiments: H22 liver cancer cell strain was provided by Teaching and Research Office, School of Basic Medical Sciences, Lanzhou University/Key Lab of Preclinical Study for New Drugs of Gansu Province, and was passage and preserved by periodically intraperitoneal inoculation. White Kunming mice (18.0-22.0 g) were provided by Lanzhou Veterinary Institute, Chinese Academy of Agriculture.
(§2) 2. Establishment of tumor models and method of grouping: a third passage of mice which were well grown 7 d after intraperitoneal inoculation of H22 tumor cells were sacrificed by cervical dislocation, and placed and soaked in 75% alcohol for 10 min. After 3 mL of sterile physiological saline was intraperitoneally injected, milky tumor cell ascites was withdrawn from the abdominal cavity, and formulated into a tumor cell suspension with sterile physiological saline, with a cell number of 1.5×10^7 mL^−1. 80 white Kunming mice were taken, and 0.2 mL of the tumor cell suspension was subcutaneously inoculated to the left axilla of each mouse. 24 h after the inoculation of tumor cells, the mice were divided into 8 groups according to body weights, 10 mice for each group. […] All of the administration manners were intraperitoneal administration.
(§3) 3. Result of experiments: On the second day of modeling, continuous administration was performed for 10 d. Administration was stopped on the 11th d, and mice were sacrificed by cervical dislocation on the next day.
Test method: For the test method, see Example 24. Results can be seen in FIG. 15, FIG. 16, and Table 5.
(§4) Method: Modeling was performed by using the method of establishing H22 white mice tumor-bearing model of Example 24. The in vivo tumor growth inhibition activity of COM33 on H22 model mice was measured in an intraperitoneal injection administration manner.

For data set [4] the test system is unchanged. The description is as above. Details: species or system white Kunming mice. As to conditions: Table 6; low COM33 dosage group (50 mg/Kg), intraperitoneal injection.
Data set [5] has as its system human cervical cancer Hela cell strains. Briefly: MTT growth inhibition on Hela.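 Further: compound exposure of 24, 48 or 72 h in DMEM with 10% fetal bovine serum, MTT absorbance read at 490 nm, inhibition calculated relative to control group OD.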
Method: as §5, §6, §7, §8, §9, §10, §11
For data set [6], the system named is human gastric cancer cell strain MGC-803. Briefly: MTT growth inhibition on MGC-803.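 Further: adherent cells exposed to compound over a concentration gradient for 24, 48 and 72 h, MTT absorbance at 490 nm, inhibition relative to untreated control wells.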
Method: as §5, §6, §7, §8, §9, §10, §11
A further data set deals with various HCC. As to conditions: background; read-out: IC50 values, inhibition of tumor growth of various HCC; cited from earlier work.
For data set [7] the following is noted: background; cited from earlier work.
Data set [8] relates to HepG2 cells. Briefly: Apoptosis induction, Annexin V and PI double-staining, flow cytometry. In kind it is cell-based, human. The note with it: HepG2, 24 h; sorafenib 4 μg/mL; combination 4 μg/mL sorafenib+5 μg/mL FICD. The method, then:
Different concentrations of FICD were added on the second day, culture was continued for 24 h, cells were collected and washed 3 times with precooled PBS, and adherent cells were digested with trypsin free of EDTA. The solutions were combined, centrifuged, and washed 3 times again with precooled PBS. 400 μL of solution containing 5 μL of V-FITC and 10 μL of PI was added, incubation was performed at room temperature under protection from light, and detection was performed by flowcytometry after 30 min.
(Flow cytometry measures light scatter and fluorescence of single cells or particles in a stream.)

The test system of data set [9] is HepG2 cells. The experiment in a line: Cell cycle distribution by flow cytometry. In kind it is cell-based, human. As to conditions: sorafenib 5 μg/mL, FICD 10 μg/mL, combination 5 μg/mL FICD+10 μg/mL sorafenib. The procedure: 1 mL of 70% precooled (−20° C.) ethanol was added to the cell precipitate, homogenized by pipetting, and fixed at 4° C. overnight. On the second day, HepG2 cells was collected by centrifugation, 2 mL of precooled PBS was added for washing 3 times, 500 μL of PBS containing 50 μg/mL […] (PI) and 100 μg/mL RNaseA was added, and incubation was performed at 4° C. under protection from light for 30 min. Detection was performed on a flow cytometer, and results can be seen in FIG. 9 and FIG. 10.

Data set [10] relates to HepG2 cells. The experiment in a line: Apoptosis induction by laser confocal scanning microscope. In kind it is cell-based, human. As to conditions: HepG2, 48 h. The method, then:
Two solutions (a former one and a later one) were mixed, centrifugation was performed at 1000 r/min for 5 min, the supernatant was discarded, and washing was performed for 3 times with PBS. The cell precipitate was resuspended in Binding Buffer, 10 μL of a FITC-Annen V staining liquid was added, homogenized by pipetting slightly, and reaction was performed under protection from light. PI was added for staining for 15 min, centrifugation was performed, the supernatant was discarded, and washing was performed for 3 times again with PBS. A glass slide was loaded by applying the cell precipitate thereto and mounted with non-fluorescent buffering glycerol, a laser confocal scanning microscope was immediately used for observation and taking photographs at wavelengths of 488 nm and 560 nm. Meanwhile, cells without AnneixnV-FITC and PI added were used as a negative control.

Details of data set [11]: species or system white Kunming mice. As to conditions: mouse, in vivo. The procedure: as §2, §3, §4
For data set [12], the system named is hepatocellular carcinoma in late stages. The note with it: background; cited from earlier work.
[13] abbreviates: Homo sapiens, HepG2, Table 2, MTT.
[14] abbreviates: COM33 experiment (FIG. 17), combination compared to the sorafenib group.

For `COc1cc(NC(=O)Nc2ccc(N3CCC(CN)CC3)c(C(F)(F)F)c2)c2c(c1O)-c1c(OC)c(OC)cc3c1[C@H](C2)N(C)CC3` [Compound 17], the IC50 in data set [1] (Homo sapiens, HepG2, Table 1, MTT) was < 10 µM; in [1] (setting [13]), 7.51 µM; in data set [5] (Homo sapiens, HeLa, read-out: IC50 HeLa, Table 1, MTT) it was < 10 µM; in data set [5] (Homo sapiens, HeLa, read-out: IC50 Hela, Table 2, MTT) it was 6.32 µM; in data set [6] (Homo sapiens, MGC-803, read-out: IC50 MGC-803, Table 1, MTT), < 10 µM; in data set [6] (Homo sapiens, MGC-803, read-out: IC50 MGC-803, Table 2, MTT), 11.1 µM. Besides, in data set [2], the “expressions of C-Myc, Ki-67, CylinD1 and β-Catenin protein compared to the blank control group” value is “significantly reduced”. In addition, the Vimentin expression result in the data set with Vimentin (setting [14]) is on record as “expressed in all groups”. The “Tumor inhibition rate (%)” value in data set [3] (Table 6, high COM33 dosage group (100 g/Kg), intraperitoneal injection) was determined as 73.8%; in data set [4] it was 27.2%.

As to `COc1ccc2c(c1O)-c1c(OC)c(OC)cc3c1[C@H](C2)N(C)CC3` [ICD, isocorydine], the IC50 in data set [1] (setting [13]) was 569 µM; in the data set with various HCC it was > 200 µM; in data set [5] (Homo sapiens, HeLa, read-out: IC50 HeLa), 581 µM; in data set [6] (Homo sapiens, MGC-803, read-out: IC50 MGC-803) it was 388 µM.

On to `COc1cc(N)c2c(c1O)-c1c(OC)c(OC)cc3c1[C@H](C2)N(C)CC3` [NICD, 8-amino-isocorydine, reference compound], for which the half-inhibitory concentration (IC50) in data set [1] (Table 2, MTT) was 51.1 µM; in [5] (read-out: IC50 Hela, Table 2, MTT) it was 44.1 µM; in data set [6] (read-out: IC50 MGC-803, Table 2, MTT), 62.1 µM. In data set [7], the “stability on storage in an aqueous solution” value was “cannot be stored in an aqueous solution for a long period”.

Consider `CNC(=O)c1cc(Oc2ccc(NC(=O)Nc3ccc(Cl)c(C(F)(F)F)c3)cc2)ccn1` [Sorafenib, reference compound], for which the apoptosis rate with HepG2 cells [8] was determined as 29.33%. For the same molecule, the “cell cycle distribution compared to the blank control group” value with HepG2 cells [9] was “cells significantly increased in the G0/G1 phase of the cell cycle and significantly decreased in the S phase”. Further, in the data set with HepG2 cells [10], the “apoptosis and cell morphology, Anneixn V-FITC and PI double-staining” value is on record as “apoptoses occurred during various phases”. Also, in [2], the “expressions of C-Myc, Ki-67, CylinD1 and β-Catenin protein compared to the blank control group” value is recorded as “significantly reduced”. The “expressions of C-Myc, Ki-67, CylinD1 and β-Catenin protein compared to the blank group” value in data set [2] (high FICD dosage 20 μg/mL, combination 4 μg/mL sorafenib+10 μg/mL FICD) is given as “significantly reduced”. The Vimentin expression result in the data set with Vimentin (setting [14]) is recorded as “expressed in all groups”; with Vimentin (FICD experiment (FIG. 12)), “significantly increased”. Moreover, the “Tumor inhibition rate (%)” value in data set [3] (Table 4, sorafenib 50 mg/Kg, intraperitoneal, 10 d) came to 55.8%; in data set [3] (Table 6, sorafenib 50 mg/Kg, intraperitoneal injection) it was 56.5%. In addition, the “toxic and side effects on increased dosage” value in [11] is “toxic and side effects of sorafenib would obviously occur, resulting in death of experimental animals”. In addition, the “elongation of overall survival time of an HCC patient” value in data set [12] is 2 months.
